What was measured:
[1] = system: brain receptors of the NMDA type; experiment: Complementary examination of neurotoxic effects of xenon and N2O versus air on NMDA-type brain receptors (FIG. 4); format: in vivo
Experimental: Based on this observation, complementary examinations were carried out in order to determine the neurotoxic effects of the xenon and of the nitrous oxide (N2O), at various amounts, compared to air, on brain receptors of the NMDA type.

[2] = system: transient focal cerebral ischemia by middle cerebral artery occlusion (MCAO); experiment: Transient focal cerebral ischemia by middle cerebral artery occlusion (MCAO) in rats, infarct volume after gas inhalation; format: in vivo; conditions: rat MCAO, compared to air (mixture No. 1); for post-ischemic volume of cortical infarction: FIG. 3b; for post-ischemic volume of striatal infarction: FIG. 3c; for post-ischemic volume of oedema: FIG. 3d
Experimental: On day 1, focal ischemia was induced in each of the rats by middle cerebral artery occlusion (MCAO), for a period of 1 h 30 minutes.
The transient focal cerebral ischemia by MCAO is obtained conventionally by introducing a flexible nylon thread 1, represented diagrammatically in FIG. 1 (length 6.5 mm, diameter 180 μm), a portion 2 of the proximal end of which has a diameter greater than that of the thread (length 3 mm, diameter 380 μm), into the vascular system of the rat, as far as the region of the ipsilateral hemisphere so as to cause an embolism therein, i.e. an ischemia.
Next, the rats are reperfused for 10 to 20 minutes, and are then made to inhale several mixtures of gases, namely: • mixture No. 1: air (control) • mixture No. 2: N2O (75% vol), the remainder being oxygen (25%) • mixture No. 3: xenon (50% vol), the remainder being oxygen (20 to 25%) and nitrogen (30 to 25%), respectively • mixture No. 4: xenon (75% vol), the remainder being oxygen (25%).
On day 2, i.e. 24 hours after reperfusion, the rats are killed, the brains are recovered and frozen, and thin sections 40 μm thick are cut and then stained with cresyl violet, as shown in FIG. 5.
The volume of neuronal death is calculated, from the sections obtained after staining, in a conventional manner using an appropriate, commercially available conventional program.
In fact, as shown diagrammatically in FIG. 2, the cerebral ischemia engenders, in general, in 24 hours, an infarction in the region which has been subjected to ischemia (penumbra), leading to neuronal death in the brain cells present in a considerable portion of this region.

[3] = system: glutamergic receptors for N-methyl-D-aspartate, NMDA; conditions: in vitro, literature (Franks et al.; Jevtovic-Todorovic et al.; Yamakura and Harris); cited from earlier work

For [Xe] [xenon], the “volume of deteriorated NMDA receptors” value ([1]; dose of 50% or 75% by volume, compared to control (air), FIG. 4) was “smaller volume”, the “neuroprotection, comparison between doses” value ([1]; xenon at 50% by volume compared to xenon at 75%) was “more neuroprotective” and the “post-ischemic volume of cortical infarction” value [2] was “decrease”. The “post-ischemic volume of striatal infarction” value [2] was “decrease”, the “post-ischemic volume of oedema” value [2] was “decrease” and the “behaviour at NMDA receptors” value [3] was “low-affinity antagonists”.

In the case of [N-]=[N+]=O [N2O, nitrous oxide], the “neuroprotection, comparison between doses” value ([1]; N2O at 75% by volume compared to N2O at 50%) is reported as “more neuroprotective”, the “volume of deteriorated NMDA receptors” value ([1]; in vivo) is reported as “smaller volume” and the “post-ischemic volume of cortical infarction” value [2] is reported as “decrease”. For the same molecule, the “post-ischemic volume of striatal infarction” value [2] was “decrease”, the “post-ischemic volume of oedema” value [2] was “decrease” and the “behaviour at NMDA receptors” value [3] was “low-affinity antagonists”.
